Reference: patent publication US20080280941A1, “8-Phenoxy-Gamma Carboline Derivatives” (priority 2004, published 2008)

Columns and labels:
[1] = tested on: inflammation induced by the stimulation of the saphenous nerve; assay: Inhibition of neurogenic inflammation (plasmatic extravasation) induced by electrical stimulation of the saphenous nerve; type: in vivo, male Wistar rats; details: rat, 15 minutes before electrical stimulation of the saphenous nerve, Evans Blue extravasation
Experimental: The results of the pharmacological studies are given below. • 1. The inhibitory power of the molecules on inflammation induced by the stimulation of the saphenous nerve has been measured at follows 24 hours after a treatment with guanethidine (20 mg/kg, sc), the male Wistar rats (220-250 g) are anaesthetized with sodic pentobarbital (60 mg/kg, ip). The two back legs are shaved. After a cut in the upper part of the thigh, the saphenous nerve is cleared, cut, placed on a platinum electrode and immersed in a drop of paraffin oil. Only the electrode placed on the right leg is connected to a stimulator. This latter represents the “stimulated” leg by contrast to the “sham” left leg. The product (at a dosage of 5 μg/kg) or the corresponding solvent (NaCl 9 ‰-DMSO) are administrated via the jugular vein, 15 minutes before the electrical stimulation (ES). A plasmatic marker, Evans Blue (20 mg/kg iv) is administered through the penis vein 5 minutes before the ES. The saphenous nerve is stimulated according to the following conditions: 3V; 5 Hz; 1 ms; 5 minutes (Harvard stimulator). At the end of the ES, a blood sample is realized by cardiac puncture and the skin of the edema of each leg (visualized by the extravasation of the Evans Blue) is sampled and weighted later. The animals are killed by anaesthetical overdose. The blood samples are centrifuged (3,000 rotations/minute, during 15 minutes). […] The Evans Blue is measured in the plasma and after extraction of the skin biopsies by a spectrophotometrical method, at 620 nm. […] The vascular contractile response has been measured with saphenous vein rings of rabbits (new Zealand, 2.5 to 3 kg) bound to a sensor, installed in organs baths (EMKA Technologies), containing a physiological Krebs-[…] solution. […] The vasoconstrictive effect of the molecules with increasing concentrations is evaluated with saphenous vein rings contracted in an intermediate manner with 40 mmol/l KCl and treated with 0.5 μmol/l pargyline, an inhibitor of monoamine oxydase. The results are expressed as percent of the maximum effect induced by serotonine at 1 μmol/l. […]

[2] = tested on: saphenous vein rings of rabbits; assay: Vascular contractile response of isolated saphenous vein rings; design: species or system rabbits (new Zealand); details: rabbit saphenous vein rings, percent of the maximum effect induced by serotonine at 1 μmol/l
Experimental: (§1) 24 hours after a treatment with guanethidine (20 mg/kg, sc), the male Wistar rats (220-250 g) are anaesthetized with sodic pentobarbital (60 mg/kg, ip). The two back legs are shaved. After a cut in the upper part of the thigh, the saphenous nerve is cleared, cut, placed on a platinum electrode and immersed in a drop of paraffin oil. Only the electrode placed on the right leg is connected to a stimulator. This latter represents the “stimulated” leg by contrast to the “sham” left leg. The product (at a dosage of 5 μg/kg) or the corresponding solvent (NaCl 9 ‰-DMSO) are administrated via the jugular vein, 15 minutes before the electrical stimulation (ES). A plasmatic marker, Evans Blue (20 mg/kg iv) is administered through the penis vein 5 minutes before the ES. The saphenous nerve is stimulated according to the following conditions: 3V; 5 Hz; 1 ms; 5 minutes (Harvard stimulator). […] The Evans Blue is measured in the plasma and after extraction of the skin biopsies by a spectrophotometrical method, at 620 nm. […] The vascular contractile response has been measured with saphenous vein rings of rabbits (new Zealand, 2.5 to 3 kg) bound to a sensor, installed in organs baths (EMKA Technologies), containing a physiological Krebs-Henseileit solution. […] The vasoconstrictive effect of the molecules with increasing concentrations is evaluated with saphenous vein rings contracted in an intermediate manner with 40 mmol/l KCl and treated with 0.5 μmol/l pargyline, an inhibitor of monoamine oxydase. The results are expressed as percent of the maximum effect induced by serotonine at 1 μmol/l. […] The binding on the 5HT1B/5HT1D receptors of isolated membranes of bovine nuclear caudal has been measured by measuring the shifting of 5 nmoml/l of [^3H]5-carboxamidotryptamine by increasing concentrations of the molecule in the presence of 100 nmol/l of 8-OH-dipropylaminotetralin (8-OH-DPAT) in order to mask the 5HT1A receptors and in the presence of 100 nM of mesulergine in order to mask the 5HT2 receptors.

[3] = target: 5HT1B/5HT1D receptors of isolated membranes of bovine nuclear caudal; assay: Binding on 5HT1B/5HT1D receptors, shifting of [3H]5-carboxamidotryptamine; details: 100 nmol/l 8-OH-DPAT and 100 nM mesulergine
Experimental: as §1

[4] = target: T1, 5HT1A receptors of isolated membranes of rat brain (Rattus norvegicus, UniProt P19327); assay: Binding to 5HT1A receptors, shifting of [3H]8-OH-DPAT; details: 100 nmol/l mesulergine
T1 construct: isolated membranes of rat brain; from tissue; host or cells: rat brain membranes
T1 sequence (P19327 1-422): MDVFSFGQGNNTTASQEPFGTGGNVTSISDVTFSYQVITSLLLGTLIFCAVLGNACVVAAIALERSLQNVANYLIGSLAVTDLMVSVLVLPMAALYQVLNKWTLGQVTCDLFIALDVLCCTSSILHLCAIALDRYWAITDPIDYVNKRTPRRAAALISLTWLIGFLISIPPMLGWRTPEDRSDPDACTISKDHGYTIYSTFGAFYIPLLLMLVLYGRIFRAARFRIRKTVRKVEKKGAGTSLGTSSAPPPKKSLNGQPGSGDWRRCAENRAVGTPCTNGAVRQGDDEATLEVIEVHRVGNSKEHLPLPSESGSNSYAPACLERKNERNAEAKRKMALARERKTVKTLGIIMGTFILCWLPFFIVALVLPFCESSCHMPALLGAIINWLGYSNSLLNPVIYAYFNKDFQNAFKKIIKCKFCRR

Compound | Neuro. Inf. Inhib. (%) 5 μg/kg iv [1] | Contraction. Saph. Vein 10^−6 mol/l (%) [2] | IC50 [3] | IC50 [4] | melting point
c1ccc(CN2CCc3[nH]c4ccc(Oc5ccccc5)cc4c3C2)cc1 [Example 2, 8-Phenoxy-N-benzyl-2,3,4,5-tetrahydro-1H-pyrido[4,3-b]indole] | 60% | 0% | > 10 µM | > 10 µM | 102.3 °C
c1ccc(Oc2ccc3[nH]c4c(c3c2)CNCC4)cc1 [Example 1, 8-Phenoxy-2,3,4,5-tetrahydro-1H-pyrido[4,3-b]indole] | 65% | 0% | 10 µM | 30 µM | 
Cl.c1ccc(CN2CCc3[nH]c4ccc(Oc5ccccc5)cc4c3C2)cc1 [Example 3, 8-Phenoxy-N-benzyl-2,3,4,5-tetrahydro-5H-pyridinium[4,3-b]indole-hydrochloride] | 80% | 0% | > 5 µM | > 5 µM | 
